± gives the expanded uncertainty stated by the source.

Experiment in one series: not given
The settings on record: 303 K; 101.33 kPa; Liquid; Capillary tube (Ostwald / Ubbelohde) method.
`ClC(Cl)Cl` [trichloromethane]: the viscosity (as a rule, the internal friction of a fluid under shear) came to 0.6628 ± 0.13 mPa·s.
The same measure, in the same setting: in the case of `CN(C)C=O` [dimethylformamide] it was 0.7588 ± 0.15 mPa·s.

Staying with this series, now noted: 303 K; 101.33 kPa; Liquid; Linear variable-path acoustic interferometer.
Regarding `ClC(Cl)Cl` [trichloromethane], the speed of sound (usually the propagation velocity of pressure waves in the medium) was found to be 960 ± 4 m/s.
In the case of `CN(C)C=O` [dimethylformamide], the speed of sound was 1442 ± 6 m/s.

Still in this series, the particulars now being: 303 K; 101.33 kPa; Liquid; Pycnometric method.
Regarding `ClC(Cl)Cl` [trichloromethane], the mass density (usually the mass of a sample divided by its volume) was found to be 1475.3 ± 20 kg/m3.
`CN(C)C=O` [dimethylformamide]: the mass density amounted to 941.7 ± 0.7 kg/m3.

Still in this series, the particulars now being: 308 K; 101.33 kPa; Liquid; Capillary tube (Ostwald / Ubbelohde) method.
On to `ClC(Cl)Cl` [trichloromethane], for which the viscosity was 0.6279 ± 0.13 mPa·s.
Turning to `CN(C)C=O` [dimethylformamide], the viscosity is reported as 0.7056 ± 0.14 mPa·s.

Still in this series, the particulars now being: 308 K; 101.33 kPa; Liquid; Linear variable-path acoustic interferometer.
For `ClC(Cl)Cl` [trichloromethane], the speed of sound was determined as 950.8 ± 4 m/s.
Same read-out and setting: under `CN(C)C=O` [dimethylformamide] stands 1432 ± 5.9 m/s.

Staying with this series, now noted: 308 K; 101.33 kPa; Liquid; Pycnometric method.
Regarding `ClC(Cl)Cl` [trichloromethane], the mass density was 1470.8 ± 20 kg/m3.
On the same count and under the same terms, under `CN(C)C=O` [dimethylformamide] stands 937.2 ± 0.7 kg/m3.

The series is the same for the next values; noted with them: 313 K; 101.33 kPa; Liquid; Capillary tube (Ostwald / Ubbelohde) method.
For the compound `ClC(Cl)Cl` [trichloromethane], the viscosity came to 0.5781 ± 0.12 mPa·s.
Still for that read-out and setting: under `CN(C)C=O` [dimethylformamide] stands 0.6353 ± 0.13 mPa·s.

Still in this series, the particulars now being: 313 K; 101.33 kPa; Liquid; Linear variable-path acoustic interferometer.
`ClC(Cl)Cl` [trichloromethane]: the speed of sound is 932.4 ± 3.9 m/s.
Same read-out and setting: in the case of `CN(C)C=O` [dimethylformamide] it was 1402 ± 5.8 m/s.

Staying with this series, now noted: 313 K; 101.33 kPa; Liquid; Pycnometric method.
Regarding `ClC(Cl)Cl` [trichloromethane], the mass density is recorded as 1465.8 ± 20 kg/m3.
As to `CN(C)C=O` [dimethylformamide], the mass density turned out to be 933.6 ± 0.6 kg/m3.

A further series can be described thus: mn = molality of the nth substance listed, in mol/kg. The settings on record: 303 K; 101 kPa; Liquid; Capillary tube (Ostwald / Ubbelohde) method; m2 = 0.
In the case of `CN(C)C=O` [dimethylformamide] + COc1ccc(C2(C)OC(CSc3nc4ccccc4c(=O)n3-c3ccccc3C)=NN2C(C)=O)cc1, the viscosity worked out at 0.7588 ± 0.15 mPa·s.
On the same count and under the same terms, under `ClC(Cl)Cl` [trichloromethane] + CC(=O)N1N=C(CSc2nc3ccccc3c(=O)n2-c2ccccc2C)OC1(C)c1ccc(C)cc1 stands 0.6628 ± 0.13 mPa·s.
Still for that read-out and setting: in the case of `CN(C)C=O` [dimethylformamide] + CC(=O)N1N=C(CSc2nc3ccccc3c(=O)n2-c2ccccc2C)OC1(C)c1ccc(C)cc1 it was 0.7588 ± 0.15 mPa·s; in that of `ClC(Cl)Cl` [trichloromethane] + COc1ccc(C2(C)OC(CSc3nc4ccccc4c(=O)n3-c3ccccc3C)=NN2C(C)=O)cc1, 0.6628 ± 0.13 mPa·s.

Still in this series, the particulars now being: 303 K; 101 kPa; Liquid; Linear variable-path acoustic interferometer; m2 = 0.
Regarding `CN(C)C=O` [dimethylformamide] + COc1ccc(C2(C)OC(CSc3nc4ccccc4c(=O)n3-c3ccccc3C)=NN2C(C)=O)cc1, the speed of sound worked out at 1442 ± 6 m/s.
Still for that read-out and setting: under `ClC(Cl)Cl` [trichloromethane] + CC(=O)N1N=C(CSc2nc3ccccc3c(=O)n2-c2ccccc2C)OC1(C)c1ccc(C)cc1 stands 960 ± 4 m/s.
In the case of `CN(C)C=O` [dimethylformamide] + CC(=O)N1N=C(CSc2nc3ccccc3c(=O)n2-c2ccccc2C)OC1(C)c1ccc(C)cc1, the speed of sound stood at 1442 ± 6 m/s.
Same read-out and setting: in the case of `ClC(Cl)Cl` [trichloromethane] + COc1ccc(C2(C)OC(CSc3nc4ccccc4c(=O)n3-c3ccccc3C)=NN2C(C)=O)cc1 it was 960 ± 4 m/s.

Staying with this series, now noted: 303 K; 101 kPa; Liquid; Pycnometric method; m2 = 0.
`CN(C)C=O` [dimethylformamide] + COc1ccc(C2(C)OC(CSc3nc4ccccc4c(=O)n3-c3ccccc3C)=NN2C(C)=O)cc1: the mass density worked out at 941.7 ± 0.7 kg/m3.
Same read-out and setting: in the case of `ClC(Cl)Cl` [trichloromethane] + CC(=O)N1N=C(CSc2nc3ccccc3c(=O)n2-c2ccccc2C)OC1(C)c1ccc(C)cc1 it was 1475.3 ± 20 kg/m3.
Regarding `CN(C)C=O` [dimethylformamide] + CC(=O)N1N=C(CSc2nc3ccccc3c(=O)n2-c2ccccc2C)OC1(C)c1ccc(C)cc1, the mass density worked out at 941.7 ± 0.7 kg/m3.
Same read-out and setting: in the case of `ClC(Cl)Cl` [trichloromethane] + COc1ccc(C2(C)OC(CSc3nc4ccccc4c(=O)n3-c3ccccc3C)=NN2C(C)=O)cc1 it was 1475.3 ± 20 kg/m3.

Staying with this series, now noted: 308 K; 101 kPa; Liquid; Capillary tube (Ostwald / Ubbelohde) method; m2 = 0.
As to `CN(C)C=O` [dimethylformamide] + COc1ccc(C2(C)OC(CSc3nc4ccccc4c(=O)n3-c3ccccc3C)=NN2C(C)=O)cc1, the viscosity is given as 0.7056 ± 0.14 mPa·s.
Still for that read-out and setting: in the case of `ClC(Cl)Cl` [trichloromethane] + CC(=O)N1N=C(CSc2nc3ccccc3c(=O)n2-c2ccccc2C)OC1(C)c1ccc(C)cc1 it was 0.6279 ± 0.13 mPa·s; in that of `CN(C)C=O` [dimethylformamide] + CC(=O)N1N=C(CSc2nc3ccccc3c(=O)n2-c2ccccc2C)OC1(C)c1ccc(C)cc1, 0.7056 ± 0.14 mPa·s.
The same measure, in the same setting: in the case of `ClC(Cl)Cl` [trichloromethane] + COc1ccc(C2(C)OC(CSc3nc4ccccc4c(=O)n3-c3ccccc3C)=NN2C(C)=O)cc1 it was 0.6279 ± 0.13 mPa·s.

The series is the same for the next values; noted with them: 308 K; 101 kPa; Liquid; Linear variable-path acoustic interferometer; m2 = 0.
Regarding `CN(C)C=O` [dimethylformamide] + COc1ccc(C2(C)OC(CSc3nc4ccccc4c(=O)n3-c3ccccc3C)=NN2C(C)=O)cc1, the speed of sound amounted to 1432 ± 5.9 m/s.
Regarding `ClC(Cl)Cl` [trichloromethane] + CC(=O)N1N=C(CSc2nc3ccccc3c(=O)n2-c2ccccc2C)OC1(C)c1ccc(C)cc1, the speed of sound turned out to be 950.8 ± 4 m/s.
For the compound `CN(C)C=O` [dimethylformamide] + CC(=O)N1N=C(CSc2nc3ccccc3c(=O)n2-c2ccccc2C)OC1(C)c1ccc(C)cc1, the speed of sound came to 1432 ± 5.9 m/s.
The same measure, in the same setting: in the case of `ClC(Cl)Cl` [trichloromethane] + COc1ccc(C2(C)OC(CSc3nc4ccccc4c(=O)n3-c3ccccc3C)=NN2C(C)=O)cc1 it was 950.8 ± 4 m/s.

Staying with this series, now noted: 308 K; 101 kPa; Liquid; Pycnometric method; m2 = 0.
For `CN(C)C=O` [dimethylformamide] + COc1ccc(C2(C)OC(CSc3nc4ccccc4c(=O)n3-c3ccccc3C)=NN2C(C)=O)cc1, the mass density worked out at 937.2 ± 0.7 kg/m3.
In the case of `ClC(Cl)Cl` [trichloromethane] + CC(=O)N1N=C(CSc2nc3ccccc3c(=O)n2-c2ccccc2C)OC1(C)c1ccc(C)cc1, the mass density is on record as 1470.8 ± 20 kg/m3.
Take `CN(C)C=O` [dimethylformamide] + CC(=O)N1N=C(CSc2nc3ccccc3c(=O)n2-c2ccccc2C)OC1(C)c1ccc(C)cc1: the mass density came to 937.2 ± 0.7 kg/m3.
As for `ClC(Cl)Cl` [trichloromethane] + COc1ccc(C2(C)OC(CSc3nc4ccccc4c(=O)n3-c3ccccc3C)=NN2C(C)=O)cc1, the mass density is 1470.8 ± 20 kg/m3.

Staying with this series, now noted: 313 K; 101 kPa; Liquid; Capillary tube (Ostwald / Ubbelohde) method; m2 = 0.
In the case of `CN(C)C=O` [dimethylformamide] + COc1ccc(C2(C)OC(CSc3nc4ccccc4c(=O)n3-c3ccccc3C)=NN2C(C)=O)cc1, the viscosity is reported as 0.6353 ± 0.13 mPa·s.
As to `ClC(Cl)Cl` [trichloromethane] + CC(=O)N1N=C(CSc2nc3ccccc3c(=O)n2-c2ccccc2C)OC1(C)c1ccc(C)cc1, the viscosity is given as 0.5781 ± 0.12 mPa·s.
Still for that read-out and setting: in the case of `CN(C)C=O` [dimethylformamide] + CC(=O)N1N=C(CSc2nc3ccccc3c(=O)n2-c2ccccc2C)OC1(C)c1ccc(C)cc1 it was 0.6353 ± 0.13 mPa·s; in that of `ClC(Cl)Cl` [trichloromethane] + COc1ccc(C2(C)OC(CSc3nc4ccccc4c(=O)n3-c3ccccc3C)=NN2C(C)=O)cc1, 0.5781 ± 0.12 mPa·s.

The same series, now with this note: 313 K; 101 kPa; Liquid; Linear variable-path acoustic interferometer; m2 = 0.
Consider `CN(C)C=O` [dimethylformamide] + COc1ccc(C2(C)OC(CSc3nc4ccccc4c(=O)n3-c3ccccc3C)=NN2C(C)=O)cc1, for which the speed of sound came to 1402 ± 5.8 m/s.
As for `ClC(Cl)Cl` [trichloromethane] + CC(=O)N1N=C(CSc2nc3ccccc3c(=O)n2-c2ccccc2C)OC1(C)c1ccc(C)cc1, the speed of sound worked out at 932.4 ± 3.9 m/s.
Turning to `CN(C)C=O` [dimethylformamide] + CC(=O)N1N=C(CSc2nc3ccccc3c(=O)n2-c2ccccc2C)OC1(C)c1ccc(C)cc1, the speed of sound turned out to be 1402 ± 5.8 m/s.
Turning to `ClC(Cl)Cl` [trichloromethane] + COc1ccc(C2(C)OC(CSc3nc4ccccc4c(=O)n3-c3ccccc3C)=NN2C(C)=O)cc1, the speed of sound worked out at 932.4 ± 3.9 m/s.

Staying with this series, now noted: 313 K; 101 kPa; Liquid; Pycnometric method; m2 = 0.
For the compound `CN(C)C=O` [dimethylformamide] + COc1ccc(C2(C)OC(CSc3nc4ccccc4c(=O)n3-c3ccccc3C)=NN2C(C)=O)cc1, the mass density came to 933.6 ± 0.6 kg/m3.
On to `ClC(Cl)Cl` [trichloromethane] + CC(=O)N1N=C(CSc2nc3ccccc3c(=O)n2-c2ccccc2C)OC1(C)c1ccc(C)cc1, for which the mass density is on record as 1465.8 ± 20 kg/m3.
On the same count and under the same terms, in the case of `CN(C)C=O` [dimethylformamide] + CC(=O)N1N=C(CSc2nc3ccccc3c(=O)n2-c2ccccc2C)OC1(C)c1ccc(C)cc1 it was 933.6 ± 0.6 kg/m3; in that of `ClC(Cl)Cl` [trichloromethane] + COc1ccc(C2(C)OC(CSc3nc4ccccc4c(=O)n3-c3ccccc3C)=NN2C(C)=O)cc1, 1465.8 ± 20 kg/m3.

The values are drawn from the NIST ThermoML archive (doi:10.1016/j.jct.2012.09.013).
